This is an account of results in patent publication US9133204B2, “5-membered heterocyclic amides and related compounds” (H. Lundbeck A/S, priority 2007, dated 2015).

Molecules are shown by their SMILES. pIC50: −log10 of the molar value. Where only a bound is given, the exact number is not on record here.

Broadly, the pIC50 is −log10 of the IC50, conventionally taken in molar units.

In this test the target is T1, P2X7 receptor (Homo sapiens, UniProt Q99572).
T1 construct: host or cells: SH-SY5Y
T1 sequence (Q99572 1-595): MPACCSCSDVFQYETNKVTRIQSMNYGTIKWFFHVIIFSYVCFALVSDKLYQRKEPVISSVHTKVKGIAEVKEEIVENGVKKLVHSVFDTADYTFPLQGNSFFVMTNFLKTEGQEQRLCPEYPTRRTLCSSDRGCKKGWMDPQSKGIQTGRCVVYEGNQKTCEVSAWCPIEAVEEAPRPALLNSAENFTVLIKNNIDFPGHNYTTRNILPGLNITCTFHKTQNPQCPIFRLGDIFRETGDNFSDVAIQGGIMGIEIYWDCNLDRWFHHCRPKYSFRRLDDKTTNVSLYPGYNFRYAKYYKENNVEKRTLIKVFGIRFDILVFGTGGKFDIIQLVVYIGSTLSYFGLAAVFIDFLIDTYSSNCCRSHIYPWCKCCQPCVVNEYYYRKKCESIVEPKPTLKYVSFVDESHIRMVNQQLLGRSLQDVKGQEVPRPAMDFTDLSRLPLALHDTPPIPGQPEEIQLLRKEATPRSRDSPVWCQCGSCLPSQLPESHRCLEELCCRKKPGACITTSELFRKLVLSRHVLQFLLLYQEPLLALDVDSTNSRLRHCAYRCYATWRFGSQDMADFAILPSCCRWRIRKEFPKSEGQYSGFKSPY
Description: High throughput P2X7 calcium mobilization assay (Example 4A). Type of test: cell-based. The note with it: SH-SY5Y cells; 50% decrease in fluorescence response of cells exposed to 80 μM BzATP; Table I. The method, boiled down: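 SH-SY5Y cells loaded with 2.3 μM Fluo-4 AM for 1 h at 37 °C, then preincubated 1 h at room temperature with test compound (final 1–2500 nM) in low-sodium sucrose buffer, pH 7.4. Antagonism measured against 80 μM BzATP (about EC50) as peak FLIPR calcium fluorescence over 2 min, corrected by no-agonist background.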
For orientation: Calcium flux is commonly read through the fluorescence of an indicator in the cells.
With `Cc1nn(-c2ncc(F)c(N)n2)cc1C(=O)NCC(CC(C)C)c1ccc(Cl)cc1` (stereo not drawn) [Compound 113, 1-(4-amino-5-fluoropyrimidin-2-yl)-N-[2-(4-chlorophenyl)-4-methylpentyl]-3-methyl-1H-pyrazole-4-carboxamide], the pIC50 was at least 5.70. Take `Cc1nn(-c2ncc(F)cn2)cc1C(=O)NCC(CC(C)C)c1ccc(Cl)cc1` (stereo not drawn) [Compound 114, N-[2-(4-chlorophenyl)-4-methylpentyl]-1-(5-fluoropyrimidin-2-yl)-3-methyl-1H-pyrazole-4-carboxamide]: the pIC50 was at least 5.70.

`Cc1cnc(-n2cc(C(=O)NCC(CC(C)C)c3ccc(C(F)(F)F)cc3)c(C)n2)nc1N` (stereo not drawn) [Compound 115, 1-(4-amino-5-methylpyrimidin-2-yl)-3-methyl-N-{4-methyl-2-[4-(trifluoromethyl)phenyl]pentyl}-1H-pyrazole-4-carboxamide]: the pIC50 was at least 5.70.

Consider `Cc1nn(-c2ncc(F)c(N)n2)cc1C(=O)NCC(CC(C)C)c1ccc(C(F)(F)F)cc1` (stereo not drawn) [Compound 116, 1-(4-amino-5-fluoropyrimidin-2-yl)-3-methyl-N-{4-methyl-2-[4-(trifluoromethyl)phenyl]pentyl}-1H-pyrazole-4-carboxamide], for which the pIC50 is at least 5.70. In the case of `Cc1nn(-c2ncc(F)cn2)cc1C(=O)NCC(CC(C)C)c1ccc(C(F)(F)F)cc1` (stereo not drawn) [Compound 117, 1-(5-fluoropyrimidin-2-yl)-3-methyl-N-{4-methyl-2-[4-(trifluoromethyl)phenyl]pentyl}-1H-pyrazole-4-carboxamide], the pIC50 was at least 5.70. The value for `O=C(NCC12CC3CC(CC(C3)C1)C2)c1cn(-c2ncc(F)cn2)nc1C(F)(F)F` [Compound 118, N-(adamantan-1-ylmethyl)-1-(5-fluoropyrimidin-2-yl)-3-(trifluoromethyl)-1H-pyrazole-4-carboxamide] was at least 5.70; that for `Cc1cnc(-n2cc(C(=O)NCC34CC5CC(CC(C5)C3)C4)c(C)n2)nc1-c1ccncc1` [Compound 119, N-(adamantan-1-ylmethyl)-3-methyl-1-(5-methyl-4-pyridin-4-ylpyrimidin-2-yl)-1H-pyrazole-4-carboxamide] was at least 5.70; that for `Cc1cnc(-n2cc(C(=O)NCC34CC5CC(CC(C5)C3)C4)c(C)n2)nc1-c1cncnc1` [Compound 120, N-(adamantan-1-ylmethyl)-3-methyl-1-(5-methyl-4,5′ bipyrimidin-2-yl)-1H-pyrazole-4-carboxamide] was at least 5.70. In the case of `Cc1cnc(-n2cc(C(=O)NCC34CC5CC(CC(C5)C3)C4)c(C)n2)nc1-c1ccccn1` [Compound 121, N-(adamantan-1-ylmethyl)-3-methyl-1-(5-methyl-4-pyridin-2-ylpyrimidin-2-yl)-1H-pyrazole-4-carboxamide], the pIC50 is at least 5.70. On to `Cc1cnc(-n2cc(C(=O)NCC34CC5CC(CC(C5)C3)C4)c(C)n2)nc1-c1ncccn1` [Compound 122, N-(adamantan-1-ylmethyl)-3-methyl-1-(5′-methyl-2,4′-bipyrimidin-2′-yl)-1H-pyrazole-4-carboxamide], for which the pIC50 is at least 5.70. For the compound `Cc1cnc(-n2cc(C(=O)NCC34CC5CC(CC(C5)C3)C4)c(C(F)(F)F)n2)nc1N` [Compound 123, N-(adamantan-1-ylmethyl)-1-(4-amino-5-methylpyrimidin-2-yl)-3-(trifluoromethyl)-1H-pyrazole-4-carboxamide], the negative-log IC50 (pIC50) was at least 5.70. With `Cc1ccc(-n2cc(C(=O)NCC34CC5CC(CC(C5)C3)C4)c(C(F)(F)F)n2)nc1` [Compound 124, N-(adamantan-1-ylmethyl)-1-(5-methylpyridin-2-yl)-3-(trifluoromethyl)-1H-pyrazole-4-carboxamide], the pIC50 was at least 5.70.

Consider `Cc1nn(-c2ncc(Br)cn2)cc1C(=O)NCC12CC3CC(CC(C3)C1)C2` [Compound 125, N-(adamantan-1-ylmethyl)-1-(5-bromopyrimidin-2-yl)-3-methyl-1H-pyrazole-4-carboxamide], for which the pIC50 was at least 5.70. Consider `CC(C)c1nn(-c2ncc(F)c(N)n2)cc1C(=O)NCC12CC3CC(CC(C3)C1)C2` [Compound 126, N-(adamantan-1-ylmethyl)-1-(4-amino-5-fluoropyrimidin-2-yl)-3-isopropyl-1H-pyrazole-4-carboxamide], for which the negative-log IC50 (pIC50) is at least 5.70. As to `CC(C)c1nn(-c2ncc(F)cn2)cc1C(=O)NCC12CC3CC(CC(C3)C1)C2` [Compound 127, N-(adamantan-1-ylmethyl)-1-(5-fluoropyrimidin-2-yl)-3-isopropyl-1H-pyrazole-4-carboxamide], the pIC50 is at least 5.70. On to `Cc1c(N)ncnc1-n1cc(C(=O)NCC23CC4CC(CC(C4)C2)C3)c(C(F)(F)F)n1` [Compound 128, N-(adamantan-1-ylmethyl)-1-(6-amino-5-methylpyrimidin-4-yl)-3-(trifluoromethyl)-1H-pyrazole-4-carboxamide], for which the negative logarithm of the IC50 (pIC50) is at least 5.70. `O=C(NCC12CC3CC(CC(C3)C1)C2)c1cn(-c2ncccn2)nc1C(F)(F)F` [Compound 129, N-(adamantan-1-ylmethyl)-1-pyrimidin-2-yl-3-(trifluoromethyl)-1H-pyrazole-4-carboxamide]: the pIC50 is at least 5.70. For the compound `Nc1ccnc(-n2cc(C(=O)NCC34CC5CC(CC(C5)C3)C4)c(C(F)(F)F)n2)n1` [Compound 130, N-(adamantan-1-ylmethyl)-1-(4-aminopyrimidin-2-yl)-3-(trifluoromethyl)-1H-pyrazole-4-carboxamide], the negative-log IC50 (pIC50) was at least 5.70. Turning to `Nc1cccnc1-n1cc(C(=O)NCC23CC4CC(CC(C4)C2)C3)c(C(F)(F)F)n1` [Compound 131, N-(adamantan-1-ylmethyl)-1-(3-aminopyridin-2-yl)-3-(trifluoromethyl)-1H-pyrazole-4-carboxamide], the pIC50 was at least 5.70. For the compound `Cc1cccnc1-n1cc(C(=O)NCC23CC4CC(CC(C4)C2)C3)c(C(F)(F)F)n1` [Compound 132, N-(adamantan-1-ylmethyl)-1-(3-methylpyridin-2-yl)-3-(trifluoromethyl)-1H-pyrazole-4-carboxamide], the pIC50 is at least 5.70. With `CC(C)c1nn(-c2nccs2)cc1C(=O)NCC12CC3CC(CC(C3)C1)C2` [Compound 133, N-(adamantan-1-ylmethyl)-3-isopropyl-1-(1,3-thiazol-2-yl)-1H-pyrazole-4-carboxamide], the pIC50 is at least 5.70. For the compound `O=C(NCC12CC3CC(CC(C3)C1)C2)c1c[nH]nc1C(F)(F)F` [Compound 134, N-(adamantan-1-ylmethyl)-3-(trifluoromethyl)-1H-pyrazole-4-carboxamide], the pIC50 was at least 5.70. The value for `O=C(NCC12CC3CC(CC(C3)C1)C2)c1cn(-c2nccs2)nc1C(F)(F)F` [Compound 135, N-(adamantan-1-ylmethyl)-1-(1,3-thiazol-2-yl)-3-(trifluoromethyl)-1H-pyrazole-4-carboxamide] was at least 5.70; that for `O=C(NCC12CC3CC(CC(C3)C1)C2)c1cn(-c2cnccn2)nc1C(F)(F)F` [Compound 136, N-(adamantan-1-ylmethyl)-1-pyrazin-2-yl-3-(trifluoromethyl)-1H-pyrazole-4-carboxamide] was at least 5.70; that for `Nc1cncc(-n2cc(C(=O)NCC34CC5CC(CC(C5)C3)C4)c(C(F)(F)F)n2)n1` [Compound 137, N-(adamantan-1-ylmethyl)-1-(6-aminopyrazin-2-yl)-3-(trifluoromethyl)-1H-pyrazole-4-carboxamide] was at least 5.70. For the compound `Cc1ccc(C2(CNC(=O)c3cn(-c4ncc(F)c(N)n4)nc3C(F)(F)F)CCCCC2)cn1` [Compound 138, 1-(4-amino-5-fluoropyrimidin-2-yl)-N-{[1-(6-methylpyridin-3-yl)cyclohexyl]methyl}-3-(trifluoromethyl)-1H-pyrazole-4-carboxamide], the pIC50 was at least 5.70. With `CC(C)CC(CNC(=O)c1cn(-c2ncc(F)c(N)n2)nc1C(F)(F)F)c1cccnc1` (stereo not drawn) [Compound 139, 1-(4-amino-5-fluoropyrimidin-2-yl)-N-(4-methyl-2-pyridin-3-ylpentyl)-3-(trifluoromethyl)-1H-pyrazole-4-carboxamide], the pIC50 was at least 5.70. Turning to `CC(C)CC(CNC(=O)c1cn(-c2ncc(F)c(N)n2)nc1C(F)(F)F)c1ccc(Cl)cc1` (stereo not drawn) [Compound 140, 1-(4-amino-5-fluoropyrimidin-2-yl)-N-[2-(4-chlorophenyl)-4-methylpentyl]-3-(trifluoromethyl)-1H-pyrazole-4-carboxamide], the pIC50 was at least 5.70. The value for `Nc1nc(-n2cc(C(=O)NCC3(c4ccc(Cl)cc4)CCCCC3)c(C(F)(F)F)n2)ncc1F` [Compound 141, 1-(4-amino-5-fluoropyrimidin-2-yl)-N-{[1-(4-chlorophenyl)cyclohexyl]methyl}-3-(trifluoromethyl)-1H-pyrazole-4-carboxamide] was at least 5.70; that for `Cn1ccnc1-n1cc(C(=O)NCC23CC4CC(CC(C4)C2)C3)c(C(F)(F)F)n1` [Compound 142, N-(adamantan-1-ylmethyl)-1-(1-methyl-1H-imidazol-2-yl)-3-(trifluoromethyl)-1H-pyrazole-4-carboxamide] was at least 5.70.
